Legend:
[1] = system: human CCK-2 receptor transfected A431 cells; assay: Biodistribution studies in CD1 nu/nu mice bearing CCK-2 receptor positive and mock A431 tumours; assay type: in vivo
Procedure: PP-F11N has been investigated according to the CD1 nu/nu mice model. […] FIG. 2 illustrates the biodistribution of PP-F11, PP-F11N and oxidized PP-F11 ox (oxidized PP-F11) after 4 hours in the athymic CD1 nu/nu mice model. Tumour positive: with human CCK-2 receptor transfected A431 cells on one side of the mouse; tumor negative: CCK-2 receptor negative A431 cells on the other side of the mouse. The effect of the higher tumor uptake by the exchange of methionine with norleucine is specifically apparent with compounds having the DGlu6 sequence, different from compounds having a sequence with DGLn6 which is referred to as PP-F10.
CD1 nu/nu mice were injected with 5×10^6 A431 cells. CCK-2 receptor positive A431 cells' were injected into one flank and mock cells on the other as an unspecific control. The tumors reach a weight of about 80 to 120 mg after about 10 days. 150-200 kBq (5 pmol) of the radiolabelled peptides were injected into the tail vein. Mice were killed by CO2 asphyxiation after defined time points post injection. The organs were dissected, weighted and the activity was measured. The % injected activity per gram (% i.A./g) was calculated. The animal experiments were approved by the local animal welfare committee and performed according to national regulations.

[2] = Stability of 177Lu-labelled mini-gastrin analogues in human serum/plasma, metabolites by HPLC; assay type: in vitro ADME; details: human serum, radio-labelled with 177Lu, compared with PP-F11, PP-F10N and PP-F10
Procedure: 12 MBq of the radiolabelled compound was incubated in 2 mL fresh human plasma. A 40 μL probe was taken after 0, 1, 2, 18, 24, 48 and 72 h and added 200 μL (50% Methanol and 50% Acetonitril) in a Mini-UniPrep Filter. The solution is filtered after vortexing. 40 μL of the filtered solution is analyzed by HPLC.

[3] = biodistribution after 4 hours, athymic CD1 nu/nu mice

With `CCCC[C@H](NC(=O)[C@H](Cc1c[nH]c2ccccc12)NC(=O)CNC(=O)[C@H](Cc1ccc(O)cc1)NC(=O)[C@H](C)NC(=O)[C@@H](CCC(=O)O)NC(=O)[C@@H](CCC(=O)O)NC(=O)[C@@H](CCC(=O)O)NC(=O)[C@@H](CCC(=O)O)NC(=O)[C@@H](CCC(=O)O)NC(=O)[C@@H](CCC(=O)O)NC(=O)CN1CCN(CC(=O)O)CCN(CC(=O)O)CCN(CC(=O)O)CC1)C(=O)N[C@@H](CC(=O)O)C(=O)N[C@@H](Cc1ccccc1)C(N)=O` [PP-F11N] the “accumulation in the kidneys” value [1, 3] was “very few”, the tumor-noise ratio [1, 3] was “very favorable” and the tumor uptake ([1]; biodistribution after 4 hours, athymic CD1 nu/nu mice, CCK-2 receptor positive A431 tumour) was “significant higher”. For the same molecule, the tumor-to-kidney ([1]; mouse, in vivo) was “best” and the pharmacologic stability [2] was “highest pharmacologic stability of all probands”.

Reference: US11623014B2, “Mini-gastrin analogue, in particular for use in CCK2 receptor positive tumour diagnosis and/or treatment” (Paul Scherrer Institut, priority 2013, dated 2023)
